± gives the expanded uncertainty stated by the source.
Key:
[1] = mn = molality of the nth substance listed, in mol/kg; conditions: 101.3 kPa, Liquid
[2] = 101.3 kPa, Liquid

NCCCC(=O)O [4-aminobutanoic acid] + O
mass density ([1]; 308.15 K, m1 = 0.02): 994.6 ± 1.2 kg/m3
speed of sound ([1]; 308.15 K, m1 = 0.02): 1521.8 ± 3.1 m/s
mass density ([1]; 308.15 K, m1 = 0.04): 995.2 ± 1.2 kg/m3
speed of sound ([1]; 308.15 K, m1 = 0.04): 1523 ± 3.1 m/s
mass density ([1]; 308.15 K, m1 = 0.06): 995.8 ± 1.2 kg/m3
speed of sound ([1]; 308.15 K, m1 = 0.06): 1524.3 ± 3.1 m/s
mass density ([1]; 308.15 K, m1 = 0.08): 996.4 ± 1.2 kg/m3
speed of sound ([1]; 308.15 K, m1 = 0.08): 1525.6 ± 3.1 m/s
mass density ([1]; 308.15 K, m1 = 0.1): 997 ± 1.2 kg/m3
speed of sound ([1]; 308.15 K, m1 = 0.1): 1527 ± 3.1 m/s
mass density ([1]; 313.15 K, m1 = 0.02): 992.8 ± 1.2 kg/m3
speed of sound ([1]; 313.15 K, m1 = 0.02): 1529.4 ± 3.1 m/s
mass density ([1]; 313.15 K, m1 = 0.04): 993.4 ± 1.2 kg/m3
speed of sound ([1]; 313.15 K, m1 = 0.04): 1530.7 ± 3.1 m/s
mass density ([1]; 313.15 K, m1 = 0.06): 994 ± 1.2 kg/m3
speed of sound ([1]; 313.15 K, m1 = 0.06): 1532 ± 3.2 m/s
mass density ([1]; 313.15 K, m1 = 0.08): 994.6 ± 1.2 kg/m3
speed of sound ([1]; 313.15 K, m1 = 0.08): 1533.3 ± 3.2 m/s
mass density ([1]; 313.15 K, m1 = 0.1): 995.2 ± 1.2 kg/m3
speed of sound ([1]; 313.15 K, m1 = 0.1): 1534.6 ± 3.2 m/s
mass density ([1]; 318.15 K, m1 = 0.02): 990.8 ± 1.2 kg/m3
speed of sound ([1]; 318.15 K, m1 = 0.02): 1536.5 ± 3.2 m/s
mass density ([1]; 318.15 K, m1 = 0.04): 991.4 ± 1.2 kg/m3
speed of sound ([1]; 318.15 K, m1 = 0.04): 1537.7 ± 3.2 m/s
mass density ([1]; 318.15 K, m1 = 0.06): 992 ± 1.2 kg/m3
speed of sound ([1]; 318.15 K, m1 = 0.06): 1538.9 ± 3.2 m/s
mass density ([1]; 318.15 K, m1 = 0.08): 992.6 ± 1.2 kg/m3
speed of sound ([1]; 318.15 K, m1 = 0.08): 1540.1 ± 3.2 m/s
mass density ([1]; 318.15 K, m1 = 0.1): 993.2 ± 1.2 kg/m3
speed of sound ([1]; 318.15 K, m1 = 0.1): 1541.3 ± 3.2 m/s

CN(C)C(=N)NC(=N)N.Cl [N,N-dimethylimidodicarbonimidic diamide hydrochloride] + O
mass density ([1]; 308.15 K, m1 = 0.05): 997.5 ± 1.1 kg/m3
speed of sound ([1]; 308.15 K, m1 = 0.05): 1527.4 ± 3.1 m/s
mass density ([1]; 308.15 K, m1 = 0.1): 999.1 ± 1.2 kg/m3
speed of sound ([1]; 308.15 K, m1 = 0.1): 1529 ± 3.1 m/s
mass density ([1]; 308.15 K, m1 = 0.15): 1000.2 ± 1.1 kg/m3
speed of sound ([1]; 308.15 K, m1 = 0.15): 1530 ± 3.1 m/s
mass density ([1]; 313.15 K, m1 = 0.05): 996 ± 1.2 kg/m3
speed of sound ([1]; 313.15 K, m1 = 0.05): 1534.4 ± 3.2 m/s
mass density ([1]; 313.15 K, m1 = 0.1): 997.2 ± 1.2 kg/m3
speed of sound ([1]; 313.15 K, m1 = 0.1): 1537.8 ± 3.2 m/s
mass density ([1]; 313.15 K, m1 = 0.15): 998.8 ± 1.2 kg/m3
speed of sound ([1]; 313.15 K, m1 = 0.15): 1541.2 ± 3.2 m/s
mass density ([1]; 318.15 K, m1 = 0.05): 994.3 ± 1.3 kg/m3
speed of sound ([1]; 318.15 K, m1 = 0.05): 1539.2 ± 3.2 m/s
mass density ([1]; 318.15 K, m1 = 0.1): 995.5 ± 1.2 kg/m3
speed of sound ([1]; 318.15 K, m1 = 0.1): 1541 ± 3.2 m/s
mass density ([1]; 318.15 K, m1 = 0.15): 997.2 ± 1.2 kg/m3
speed of sound ([1]; 318.15 K, m1 = 0.15): 1543.8 ± 3.2 m/s

O [water]
speed of sound ([2]; 313.15 K): 1528 ± 3.1 m/s
speed of sound ([2]; 318.15 K): 1535.2 ± 3.2 m/s

Source: the NIST ThermoML archive (doi:10.1007/s10765-010-0862-1)
